These compounds were tested against T1, human NaPi-IIb (Homo sapiens, UniProt O95436) (assay: Inhibitory effect on 33PO4 uptake into human NaPi-IIb-expressing CHO cells). Conditions: read-out: IC50.
T1 construct: expressed in transfected cells
T1 sequence (O95436 1-690): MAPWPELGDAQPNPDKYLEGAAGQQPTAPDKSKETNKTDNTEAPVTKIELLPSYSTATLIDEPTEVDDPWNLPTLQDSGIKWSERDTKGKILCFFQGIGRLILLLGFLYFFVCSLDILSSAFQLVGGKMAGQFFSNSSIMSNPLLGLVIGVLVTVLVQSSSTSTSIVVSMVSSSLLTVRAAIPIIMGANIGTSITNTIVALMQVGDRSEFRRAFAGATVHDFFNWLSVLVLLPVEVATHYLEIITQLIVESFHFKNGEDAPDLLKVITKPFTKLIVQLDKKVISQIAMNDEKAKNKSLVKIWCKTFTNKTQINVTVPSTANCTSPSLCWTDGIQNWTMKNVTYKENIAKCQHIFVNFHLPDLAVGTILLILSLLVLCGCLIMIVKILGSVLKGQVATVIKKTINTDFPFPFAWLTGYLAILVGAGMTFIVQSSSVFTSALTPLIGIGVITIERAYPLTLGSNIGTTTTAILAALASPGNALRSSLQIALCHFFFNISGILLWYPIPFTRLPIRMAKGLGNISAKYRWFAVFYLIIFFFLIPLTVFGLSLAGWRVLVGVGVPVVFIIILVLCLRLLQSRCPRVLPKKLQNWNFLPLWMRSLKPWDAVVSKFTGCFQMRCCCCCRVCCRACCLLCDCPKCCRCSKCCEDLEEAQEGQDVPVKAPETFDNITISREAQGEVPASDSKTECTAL
Assay type: cell-based
Experimental: Test Example 2: Inhibitory Effect on PO4 Uptake into Human NaPi-IIb-Expressing Cell CHO cells were transfected with human NaPi-IIb expression plasmids, and a stably human NaPi-IIb-expressing cell line was obtained using G418. The human NaPi-IIb-expressing cells were inoculated to a 96-well plate and incubated overnight in a CO2 incubator. […] After a given time, a 1/20 volume of buffer A containing ^33PO4 was added thereto and reacted at room temperature. After washing with ice-cold buffer A, a liquid scintillator was added to each reaction mixture, and the amount of ^33PO4 uptake was measured using TopCount.

Row | SMILES | IC50 [µM]
1 | C[C@]12CCCN1N(Cc1cccc(F)c1F)C(=O)C(C(=O)Nc1ccc(C(F)(F)F)cc1-c1ncnc(C#N)c1Cl)=C2O [Example 23] | 6.9
2 | Cc1c(C#N)ncnc1-c1cc(C(F)(F)F)ccc1NC(=O)C1=C(O)[C@@]2(C)CCCN2N(Cc2cccc(F)c2F)C1=O [Example 24] | 8.1
3 | COc1c(C#N)ncnc1-c1cc(C(F)(F)F)ccc1NC(=O)C1=C(O)[C@@]2(C)CCCN2N(Cc2cccc(F)c2F)C1=O [Example 25] | 10.1
4 | CCCCCN1C(=O)C(C(=O)Nc2ccc(C(F)(F)F)cc2-c2ccc(C(F)(F)F)nc2)=C(O)[C@@]2(C)CCCN12 [Example 26] | 2.2
5 | C[C@]12CCCN1N(Cc1cccc([N+](=O)[O-])c1)C(=O)C(C(=O)Nc1ccc(Br)c(F)c1)=C2O [Example 27] | 9
6 | C[C@]12CCCN1N(Cc1cccc(F)c1F)C(=O)C(C(=O)Nc1ccc(Br)c(F)c1)=C2O [Example 28] | 4.1
7 | C[C@]12CCCN1N(Cc1cccc(F)c1F)C(=O)C(C(=O)Nc1cc(F)c(Br)c(F)c1)=C2O [Example 29] | 2
8 | CC1(C)CC[C@]2(C)C(O)=C(C(=O)Nc3cc(C(F)(F)F)ccc3-c3ccc(C(F)(F)F)nc3)C(=O)N(Cc3cccc(F)c3F)N12 [Example 63] | 8.7
9 | C[C@]12CCCN1N(Cc1cccc(F)c1F)C(=O)C(C(=O)Nc1ccc(Br)cc1-c1cc(C(F)(F)F)ncn1)=C2O [Example 64] | 6.5
10 | COC(=O)c1cccc(-c2cc(C(F)(F)F)ccc2NC(=O)C2=C(O)[C@@]3(C)CCCN3N(Cc3cccc(F)c3F)C2=O)c1OC [Example 65] | 16.2
11 | CCOc1cccc(-c2cc(C(F)(F)F)ccc2NC(=O)C2=C(O)[C@@]3(C)CCCN3N(Cc3cccc(F)c3F)C2=O)c1OC [Example 66] | 17.3
12 | C[C@]12CCCN1N(Cc1cccc(F)c1F)C(=O)C(C(=O)Nc1ccc(C(F)(F)F)cc1-c1cnc(Cl)nc1)=C2O [Example 67] | 2
13 | C[C@]12CCCN1N(Cc1cccc(F)c1F)C(=O)C(C(=O)Nc1ccc(C(F)(F)F)cc1-c1cnc(Cl)c(C#N)c1)=C2O [Example 68, (4aR)—N-[2-(6-Chloro-5-cyanopyridin-3-yl)-4-(trifluoromethyl)phenyl]-1-[(2,3-difluorophenyl)methyl]-4-hydroxy-4a-methyl-2-oxo-6,7-dihydro-5H-pyrrolo[1,2-b]pyridazine-3-carboxamide] | 2.6
14 | Cc1c(Cl)ncnc1-c1cc(C(F)(F)F)ccc1NC(=O)C1=C(O)[C@@]2(C)CCCN2N(Cc2cccc(F)c2F)C1=O [Example 69] | 8.9
15 | C[C@]12CCCN1N(Cc1cccc(F)c1F)C(=O)C(C(=O)Nc1ccc(C(F)(F)F)cc1-c1ncnc(Cl)c1Cl)=C2O [Example 70] | 8.4
16 | CN(C)S(=O)(=O)c1ccc(-c2cc(C(F)(F)F)ccc2NC(=O)C2=C(O)[C@@]3(C)CCCN3N(Cc3cccc(F)c3F)C2=O)s1 [Example 71] | 7.8
17 | COc1ncc(-c2cc(C(F)(F)F)ccc2NC(=O)C2=C(O)[C@@]3(C)CCCN3N(Cc3cccc(F)c3F)C2=O)c(OC)n1 [Example 72] | 8.3
18 | C[C@]12CCCN1N(Cc1cccc(F)c1F)C(=O)C(C(=O)Nc1ccc(C(F)(F)F)cc1-c1cnc(Br)cn1)=C2O [Example 73] | 2.3
19 | C[C@]12CCCN1N(Cc1cccc(F)c1F)C(=O)C(C(=O)Nc1ccc(C(F)(F)F)cc1-c1cnc(Cl)cn1)=C2O [Example 74] | 4.1
20 | C[C@]12CCCN1N(Cc1cccc(F)c1F)C(=O)C(C(=O)Nc1ccc(Cl)cc1F)=C2O [Example 76] | 6.6
21 | C[C@]12CCCN1N(Cc1cccc(F)c1F)C(=O)C(C(=O)Nc1ccc(Br)cc1)=C2O [Example 77] | 8.9

Row | SMILES | IC50 [µM]
22 | C[C@]12CCCN1N(Cc1cccc(F)c1F)C(=O)C(C(=O)Nc1ccc(Br)cn1)=C2O [Example 78] | 5.2
23 | C[C@]12CCCN1N(Cc1cccc(F)c1F)C(=O)C(C(=O)Nc1ccc(Cl)cn1)=C2O [Example 79] | 6.7
24 | COc1cc(C)c(-c2cc(C(F)(F)F)ccc2NC(=O)C2=C(O)[C@@]3(C)CCCN3N(Cc3cccc(F)c3F)C2=O)cn1 [Example 80] | 12.5
25 | COc1cncc(-c2cc(C(F)(F)F)ccc2NC(=O)C2=C(O)[C@@]3(C)CCCN3N(Cc3cccc(F)c3F)C2=O)c1 [Example 81] | 17.5
26 | C[C@]12CCCN1N(Cc1cccc(F)c1F)C(=O)C(C(=O)Nc1ccc(C(F)(F)F)cc1-c1cncc(C#N)c1)=C2O [Example 82] | 11.1
27 | C[C@]12CCCN1N(Cc1cccc(F)c1F)C(=O)C(C(=O)Nc1ccc(C(F)(F)F)cc1-c1cnc3ccccc3c1)=C2O [Example 83] | 10.6
28 | C[C@]12CCCN1N(Cc1cccc(F)c1F)C(=O)C(C(=O)Nc1ccc(C(F)(F)F)cc1-c1cc(Cl)cnc1Cl)=C2O [Example 84] | 7.9
29 | C[C@]12CCCN1N(Cc1cccc(F)c1F)C(=O)C(C(=O)Nc1ccc(C(F)(F)F)cc1-c1ccc(C(F)(F)F)nc1Br)=C2O [Example 85] | 6.2
30 | C[C@]12CCCN1N(Cc1cccc(F)c1F)C(=O)C(C(=O)Nc1ccc(Cl)cc1-c1ccc(C(F)(F)F)nc1)=C2O [Example 86] | 5.3
31 | CN(C)S(=O)(=O)c1ccc(-c2nc(C(F)(F)F)ccc2NC(=O)C2=C(O)[C@@]3(C)CCCN3N(Cc3cccc(F)c3F)C2=O)cc1 [Example 87] | 8.3
32 | C[C@]12CCCN1N(Cc1cccc(F)c1F)C(=O)C(C(=O)Nc1ccc(C(F)(F)F)cc1)=C2O [Example 89] | 4.8
33 | C[C@]12CCCN1N(Cc1cccc(F)c1F)C(=O)C(C(=O)Nc1ccc(C(F)(F)F)cc1-c1ccc(C(F)(F)F)nc1)=C2O [Example 90] | 2.4
34 | C[C@]12CCCN1N(Cc1cccc(F)c1F)C(=O)C(C(=O)Nc1ccc(C(F)(F)F)cc1-c1cncc(C(F)(F)F)c1)=C2O [Example 91] | 15.7
35 | COCCOc1cc(NC(=O)C2=C(O)[C@@]3(C)CCCN3N(Cc3cccc(F)c3F)C2=O)c(-c2cccc(OC)c2OC)cc1C(F)(F)F [Example 92] | 20.2
36 | COc1cccc(-c2cc(C(F)(F)F)ccc2NC(=O)C2=C(O)[C@@]3(C)CCCN3N(Cc3cccc(F)c3F)C2=O)n1 [Example 93] | 17.4
37 | C[C@]12CCCN1N(Cc1cccc(F)c1F)C(=O)C(C(=O)Nc1ccc(C(F)(F)F)cc1-c1cnc(C#N)c([N+](=O)[O-])c1)=C2O [Example 99, (4aR)—N-[2-(6-Cyano-5-nitropyridin-3-yl)-4-(trifluoromethyl)phenyl]-1-[(2,3-difluorophenyl)methyl]-4-hydroxy-4a-methyl-2-oxo-6,7-dihydro-5H-pyrrolo[1,2-b]pyridazine-3-carboxamide] | 4.3
38 | C[C@]12CCCN1N(Cc1cccc(F)c1F)C(=O)C(C(=O)Nc1ccc(C(F)(F)F)cc1-c1cc(C#N)ncn1)=C2O [Example 100] | 6.7
39 | Cc1cc(-c2cc(C(F)(F)F)ccc2NC(=O)C2=C(O)[C@@]3(C)CCCN3N(Cc3cccc(F)c3F)C2=O)cnc1C#N [Example 101] | 9.4
40 | C[C@]12CCCN1N(Cc1ccc(OCCN3CCOCC3)c(F)c1F)C(=O)C(C(=O)Nc1ccc(Cl)cc1-c1ccc(C(F)(F)F)nc1)=C2O [Example 102] | 10.9
41 | CSc1ccc(-c2cc(C(F)(F)F)ccc2NC(=O)C2=C(O)[C@@]3(C)CCCN3N(Cc3ccc(OCCN4CCOCC4)c(F)c3F)C2=O)cn1 [Example 103] | 11
42 | CSc1ncc(-c2cc(C(F)(F)F)ccc2NC(=O)C2=C(O)[C@@]3(C)CCCN3N(Cc3ccc(OCCN4CCOCC4)c(F)c3F)C2=O)cn1 [Example 104] | 10.8
